The target of the assay is T1, human VR1 (Homo sapiens, UniProt Q8NER1).
T1 construct: expressed in transfected cells
As to the kind of experiment: Inhibition of Ca2+ entry in cells caused by proton, in rat glioma (C6BU1) cells stably expressing human VR1 (Fura 2 fluorescence). It is filed as cell-based. To be noted: inhibition of proton-induced Ca2+ entry. The method, then: The assay for evaluation of VR1 inhibition by the inventive compounds will be described below. The assay was intended to evaluate in vitro inhibition of Ca^2+ entry in cells caused by proton, one of the VR1 agonists.
Rat glioma (C6BU1) cells stably expressing human VR1 were suspended in 20 mM MES buffer (at pH 6.8, contg. 20 mM 2-morpholinoethanesulfonate (referred to as MES hereinafter), 115 mM NaCl, 5 mM KCl, 1 mM MgCl2 and 14 mM D-glucose) to make a cell density of 1×10^6 cells/mL. A fluorescent dye, Fura 2-AMsolution (DojindoCorporate, Cat. No. 343-05401) was added to the suspension to make a 5 μM concentration thereof. Further, Pluronic F-127 (Wako Pure Chemical Industries, Ltd., Cat. No. P6866) was added to make a 0.1% content thereof. Then, the suspension was incubated at 37° C. for 30 min. The cells were harvested and washed three times with 20 mM MES buffer. The cells were suspended again to make a cell density of 5×10^5 cells/mL. A 500-μL portion of the suspension was taken with a cuvette (MC MEDICAL, INC., Cat. No. SSR3121), to which 10 μL of 20 mM MES buffer containing 250 mM CaCl2 was added to incorporate Ca^2+ into the cells. At the same time, 5 μL of a test compound solution (in a range of 100 μM to 10 nM in DMSO) was also added to provide a final concentration thereof in a range of 1 μM to 0.1 nM. Alternatively, 5 μL of DMSO was added as control to provide a final concentration of 1% DMSO. The suspension was set in an intracellular ionometer (CAF-110; JASCO) 10 min after those additions. The cells were stimulated with protons by addition of 60 μL of 20 mM MES buffer at pH 1.1 to the suspension to set its pH at 5.5. The activity of the test compound was determined as a difference between the minimum of fluorescence intensity before agonist stimulation and its maximum after the stimulation. The value of IC50 was derived from percentage of inhibition by the test compound compared with the control.
In the tables, the symbol “++” indicates an IC50 value less than 100 nM and the symbol “+” indicates an IC50 value of 100 nM to 1,000 nM inclusive.

pIC50: −log10 of the molar value.

T1 sequence (Q8NER1 whole entry): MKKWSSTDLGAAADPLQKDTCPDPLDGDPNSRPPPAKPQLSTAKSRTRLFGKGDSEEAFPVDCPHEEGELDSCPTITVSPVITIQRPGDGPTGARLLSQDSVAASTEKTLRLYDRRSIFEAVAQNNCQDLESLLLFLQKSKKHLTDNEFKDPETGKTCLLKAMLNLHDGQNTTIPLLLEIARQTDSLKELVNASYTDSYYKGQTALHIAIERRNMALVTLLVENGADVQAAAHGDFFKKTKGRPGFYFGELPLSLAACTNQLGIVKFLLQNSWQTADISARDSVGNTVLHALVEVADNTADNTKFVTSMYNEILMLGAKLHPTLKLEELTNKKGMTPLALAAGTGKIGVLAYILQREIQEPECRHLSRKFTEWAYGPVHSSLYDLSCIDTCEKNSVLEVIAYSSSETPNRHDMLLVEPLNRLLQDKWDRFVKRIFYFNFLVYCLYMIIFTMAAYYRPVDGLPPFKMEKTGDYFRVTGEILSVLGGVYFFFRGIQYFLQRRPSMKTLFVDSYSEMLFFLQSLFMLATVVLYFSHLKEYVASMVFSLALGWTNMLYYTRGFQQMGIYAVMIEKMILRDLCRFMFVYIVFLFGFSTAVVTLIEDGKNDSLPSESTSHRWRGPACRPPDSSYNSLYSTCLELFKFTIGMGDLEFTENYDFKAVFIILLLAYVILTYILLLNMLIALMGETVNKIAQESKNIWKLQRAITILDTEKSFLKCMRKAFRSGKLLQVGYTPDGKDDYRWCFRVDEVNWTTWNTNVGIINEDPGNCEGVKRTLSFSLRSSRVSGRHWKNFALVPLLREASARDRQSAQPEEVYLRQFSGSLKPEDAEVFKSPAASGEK

`CN(C)c1ccc(NC(=O)c2cccc3c2OCCN3c2ncccc2Cl)cc1C(F)(F)F` [Example 1-054] gave a pIC50 above 7.00.
For `CC(C)Oc1ccc(NC(=O)c2cccc3c2OCCN3c2ncccc2Cl)cc1C(F)(F)F` [Example 1-055], the pIC50 was above 7.00.
`COc1ccc(NC(=O)c2cccc3c2OCCN3c2ncccc2Cl)cc1C(F)(F)F` [Example 1-056]: the negative-log IC50 (pIC50) is above 7.00.
Next, `CC(C)COc1ccc(NC(=O)c2cccc3c2OCCN3c2ncccc2Cl)cc1C(F)(F)F` [Example 1-057]: above 7.00.
`Cc1ccnc(N2CCOc3c(C(=O)Nc4ccc(C(C)(C)C)cc4)cccc32)c1` [Example 1-058, N-(4-tert-butylphenyl)-4-(4-methylpyridin-2-yl)-3,4-dihydro-2H-benzo[1,4]oxazine-8-carboxamide] showed a pIC50 of 6.00 to 7.00.
The same measure for `Cc1cccc(N2CCOc3c(C(=O)Nc4ccc(C(C)(C)C)cc4)cccc32)n1` [Example 1-059]: 6.00 to 7.00.
In turn, `Cc1ccc(N2CCOc3c(C(=O)Nc4ccc(C(C)(C)C)cc4)cccc32)nc1` [Example 1-060] showed a negative-log IC50 (pIC50) above 7.00.
For the compound `CC(C)(C)c1ccc(NC(=O)c2cccc3c2OCCN3c2cccnc2)cc1` [Example 1-061], the pIC50 was 6.00 to 7.00.
As for `Cc1ccc(N2CCOc3c(C(=O)Nc4ccc(C#N)cc4)cccc32)nc1` [Example 1-062], the pIC50 was above 7.00.
`Cc1ccc(N2CCOc3c(C(=O)Nc4ccc(Cl)c(N)c4)cccc32)nc1` [Example 1-063] had a pIC50 above 7.00.
In turn, `CCOC1CCN(c2ccc(NC(=O)c3cccc4c3OCCN4c3ccc(C)cn3)cc2F)CC1` [Example 1-068] had a pIC50 above 7.00.
The same measure for `Cc1ccc(N2CCOc3c(C(=O)Nc4ccc(N5CCC(OC(C)C)CC5)c(F)c4)cccc32)nc1` [Example 1-069]: above 7.00; for `COC1CCCN(c2ccc(NC(=O)c3cccc4c3OCCN4c3ccc(C)cn3)cc2F)C1` (stereo not shown) [Example 1-070]: above 7.00.
`COCC1CCN(c2ccc(NC(=O)c3cccc4c3OCCN4c3ccc(C)cn3)cc2F)CC1` [Example 1-071]: the negative-log IC50 (pIC50) is above 7.00.
For the compound `COC1CCN(c2ccc(NC(=O)c3cccc4c3OCCN4c3ccc(C)cn3)cc2F)C1` (stereo not shown) [Example 1-072], the negative-log IC50 (pIC50) is above 7.00.
As to `COC(=O)c1cc(NC(=O)c2cccc3c2OCCN3c2ccc(C)cn2)ccc1OCC(C)C` [Example 1-073], the negative logarithm of the IC50 (pIC50) was above 7.00.
The same measure for `Cc1ccc(N2CCOc3c(C(=O)Nc4ccc(OCC(C)C)c(C(N)=O)c4)cccc32)nc1` [Example 1-075]: 6.00 to 7.00.
With `CNC(=O)c1cc(NC(=O)c2cccc3c2OCCN3c2ccc(C)cn2)ccc1OCC(C)C` [Example 1-076], the pIC50 is 6.00 to 7.00.
`Cc1ccc(N2CCOc3c(C(=O)Nc4ccc(OCC(C)C)c(C(=O)N(C)C)c4)cccc32)nc1` [Example 1-077] gave a pIC50 of 6.00 to 7.00.
Next, `CC(=O)c1ccc(NC(=O)c2cccc3c2OCCN3c2ccc(C)cn2)cc1` [Example 1-078]: above 7.00; `CC(=O)c1cc(NC(=O)c2cccc3c2OCCN3c2ccc(C)cn2)ccc1Cl` [Example 1-080]: above 7.00; `Cc1ccc(N2CCOc3c(C(=O)Nc4ccc(Cl)c(C(C)(C)C)c4)cccc32)nc1` [Example 1-081]: above 7.00.
As to `COC(C)(C)c1ccc(NC(=O)c2cccc3c2OCCN3c2ccc(C)cn2)cc1` [Example 1-082], the negative logarithm of the IC50 (pIC50) was above 7.00.
The compound `COc1cc(NC(=O)c2cccc3c2OCCN3c2ccc(C)cn2)ccc1Cl` [Example 1-083] gave a negative-log IC50 (pIC50) above 7.00.
With `CCCOc1ccc(NC(=O)c2cccc3c2OCCN3c2ccc(C)cn2)cc1` [Example 1-084], the pIC50 was above 7.00.
For the compound `CCCOc1ccc(NC(=O)c2cccc3c2OCCN3c2ccc(C)cn2)cc1F` [Example 1-085], the pIC50 was above 7.00.
For `CCOc1ccc(NC(=O)c2cccc3c2OCCN3c2ccc(C)cn2)cc1F` [Example 1-086], the pIC50 was above 7.00.
`CCOc1cc(NC(=O)c2cccc3c2OCCN3c2ccc(C)cn2)ccc1C` [Example 1-087] had a pIC50 above 7.00.
`COCCOc1cc(NC(=O)c2cccc3c2OCCN3c2ccc(C)cn2)ccc1C` [Example 1-089] gave a negative logarithm of the IC50 (pIC50) above 7.00.
As for `COCC1CCCCN1c1ccc(NC(=O)c2cccc3c2OCCN3c2ccc(C)cn2)cc1F` (stereo not shown) [Example 1-090], the pIC50 was above 7.00.
In turn, `Cc1ccc(N2CCOc3c(C(=O)Nc4ccc(Cl)cc4)cccc32)nc1` [Example 1-091] gave a pIC50 above 7.00.
`Cc1ccc(N2CCOc3c(C(=O)Nc4ccc(C)c(F)c4)cccc32)nc1` [Example 1-092] had a negative logarithm of the IC50 (pIC50) above 7.00.
Take `Cc1ccc(N2CCOc3c(C(=O)Nc4ccc(Cl)nc4)cccc32)nc1` [Example 1-093]: the pIC50 was 6.00 to 7.00.
Turning to `CCOc1ccc(NC(=O)c2cccc3c2OCCN3c2ncccc2Cl)cc1` [Example 1-094], the pIC50 is above 7.00.
The same measure for `O=C(Nc1ccc(N2CCCCC2)c(F)c1)c1cccc2c1OCCN2c1ncccc1Cl` [Example 1-095]: above 7.00; for `O=C(N[C@H]1CC[C@H](OC2CCCC2)CC1)c1cccc2c1OCCN2c1ncccc1Cl` [Example 1-098]: 6.00 to 7.00; for `O=C(N[C@H]1CC[C@H](OC2CCCCC2)CC1)c1cccc2c1OCCN2c1ncccc1Cl` [Example 1-099]: 6.00 to 7.00.
Next, `O=C(Nc1ccc(C(F)(F)F)cc1)c1cccc2c1OCCN2c1ncccc1Cl` [Example 1-100]: above 7.00.
The same measure for `COC1CCN(c2ccc(NC(=O)c3cccc4c3OCCN4c3ncccc3Cl)cc2F)CC1` [Example 1-101]: above 7.00.
Take `CCOC1CCN(c2ccc(NC(=O)c3cccc4c3OCCN4c3ncccc3Cl)cc2F)CC1` [Example 1-102]: the pIC50 was above 7.00.
For `CC(C)OC1CCN(c2ccc(NC(=O)c3cccc4c3OCCN4c3ncccc3Cl)cc2F)CC1` [Example 1-103], the negative logarithm of the IC50 (pIC50) is above 7.00.
With `CC(C)CNc1ccc(NC(=O)c2cccc3c2OCCN3c2ncccc2Cl)cc1F` [Example 1-104], the pIC50 was above 7.00.
Compound `Cc1ccc(N2CCOc3c(C(=O)N[C@H]4CC[C@H](OC(C)C)CC4)cccc32)nc1` [Example 1-106] gave a pIC50 of 6.00 to 7.00.
Compound `Cc1ccc(N2CCOc3c(C(=O)N[C@H]4CC[C@H](OC5CCCCC5)CC4)cccc32)nc1` [Example 1-107] showed a negative logarithm of the IC50 (pIC50) above 7.00.
Take `Cc1ccc(N2CCOc3c(C(=O)N[C@H]4CC[C@H](OCC5CCCCC5)CC4)cccc32)nc1` [Example 1-119]: the pIC50 is above 7.00.
The compound `CCOc1ccc(NC(=O)c2cccc3c2OCCN3c2ccc(Cl)cn2)cc1` [Example 1-120] had a negative logarithm of the IC50 (pIC50) above 7.00.
Compound `O=C(Nc1ccc(Cl)cc1)c1cccc2c1OCCN2c1ccc(Cl)cn1` [Example 1-121] had a pIC50 above 7.00.
Next, `COC1CCN(c2ccc(NC(=O)c3cccc4c3OCCN4c3ccc(Cl)cn3)cc2F)CC1` [Example 1-122]: above 7.00.
Next, `O=C(Nc1ccc(C(F)(F)F)cc1)c1cccc2c1OCCN2c1ccc(Cl)cn1` [Example 1-123]: above 7.00; `Cc1ccc(N2CCOc3c(C(=O)NCCc4ccccc4)cccc32)nc1` [Example 1-124]: above 7.00.
In turn, `Cc1ccc(N2CCOc3c(C(=O)NCCc4ccc(Cl)cc4)cccc32)nc1` [Example 1-125] had a pIC50 above 7.00.
With `Cc1ccc(N2CCOc3c(C(=O)NCCc4cccc(Cl)c4)cccc32)nc1` [Example 1-126], the pIC50 was above 7.00.
With `Cc1ccc(N2CCOc3c(C(=O)NCCc4ccccc4Cl)cccc32)nc1` [Example 1-127], the pIC50 is above 7.00.
In turn, `O=C(O)c1ccc(N2CCOc3c(C(=O)Nc4ccc(C(F)(F)F)cc4)cccc32)nc1` [Example 1-128] showed a negative logarithm of the IC50 (pIC50) of 6.00 to 7.00.
In turn, `CC(C)(O)c1cnc(N2CCOc3c(C(=O)Nc4ccc(C(F)(F)F)cc4)cccc32)c(Cl)c1` [Example 1-129] had a pIC50 above 7.00.
For the compound `CC(O)c1cnc(N2CCOc3c(C(=O)Nc4ccc(C(F)(F)F)cc4)cccc32)c(Cl)c1` (stereo not shown) [Example 1-130], the pIC50 is above 7.00.
The same measure for `O=C(O)c1cnc(N2CCOc3c(C(=O)Nc4ccc(C(F)(F)F)c(F)c4)cccc32)c(Cl)c1` [Example 1-131]: 6.00 to 7.00; for `COC(=O)c1ccc(N2CCOc3c(C(=O)Nc4ccc(C(C)(C)C)cc4)cccc32)nc1` [Example 1-132]: 6.00 to 7.00.
In the case of `CC(C)(C)c1ccc(NC(=O)c2cccc3c2OCCN3c2ccc(C(=O)O)cn2)cc1` [Example 1-133], the pIC50 is 6.00 to 7.00.
With `O=C(O)c1cnc(N2CCOc3c(C(=O)Nc4ccc(C(F)(F)F)cc4)cccc32)c(Cl)c1` [Example 1-136], the negative-log IC50 (pIC50) is above 7.00.
Compound `CC(C)(C)c1ccc(NC(=O)c2cccc3c2OCCN3c2ccc([N+](=O)[O-])cn2)cc1` [Example 1-140] had a pIC50 above 7.00.

By pIC50 is commonly meant the IC50 on a negative log10 scale, so that one unit is a factor of ten. Low values mean a high IC50, high ones a low IC50.

The values above are taken from US8008292B2, “Condensed benzamide compounds and inhibitors of vanilloid receptor subtype 1 (VR1) activity” (Japan Tobacco Inc., priority 2004, dated 2011).
